This note sets out measurements from US20210186915A1, “PHARMACEUTICAL COMPOSITIONS HAVING HIGH DRUG LOADINGS OF MEDIUM CHAIN TRIGLYCERIDES AND METHODS RELATED THERETO” (Cerecin Inc., priority 2018, published 2021).

Data set [1] can be described thus: Visual dissolution study in SLS/water solution (scintillation vials). In kind it is physicochemical. Conditions: 250 mg oil in 10 ml 0.25% or 0.5% SLS in water, stirred 20 minutes. As to the method: Visual dissolution studies were conducted at small scale using 20 ml scintillation vials on LMP formulations 1 through 3. The test was conducted at 37° C., 25° C. and 5° C. using a 0.25% Sodium Laurel Sulfate (SLS) in water solution. A heated aluminum block and heated stir plate were used in the study. 500 mg (250 mgA, 25 mgA/mL) of each LMP formulation was added to 10 mL pre-heated 0.25% SLS solution. The samples were stirred using a Teflon stir bar on a heated stir plate to maintain temperature for 20 minutes. After 20 minutes, the LMP suspensions were allowed to settle and were assessed visually.
Finally the test was repeated using only LMP-1 and a 0.5% SLS/water solution to access if additional surfactant would help with the apparent dissolution by increasing the solubility of the oil in water.
An oil dissolution control test was conducted to determine how the caprylic triglyceride (Miglyol 808) oil dissolves into an SLS/water solution. Two SLS stock solutions were made at 0.25% and 0.5% SLS in water. 10 ml of each SLS solution was added to a scintillation vial along with a magnetic stir bar. 250 mg of caprylic triglyceride (Miglyol 808) oil was added to each vial and stirred for 20 minutes. Images were taken after 10 minutes and two days. […] The vial does appear slightly hazy in the 10 minute photo indicating some oil is likely emulsified in the water phase. […]

Data set [2] is described as follows: USP Type II sink dissolution, 2.0 wt % SLS in pH 6.8 buffer. Conditions: for % LC Release, 10μ filtered: 500 mgA in 900 mL, 37° C. It counts as physicochemical. The method, then: LMPs 1, 2, and 3 were tested in a USP Type II sink dissolution experiment along with caprylic triglyceride (Miglyol 808) oil. 500 mgA of formulation was dosed into a 1000 mL vessel containing 900 mL of 2.0wt % SLS in pH 6.8 buffer. Samples were taken at 30 minutes and 17.5 hours.
LMP-5, 7, 9, and 11 formulations were tested in a USP Type II sink dissolution experiment sink performance test using methods outlined described in EXAMPLE 3 (Tables 3-A, 3-B). […] The release rate trends as expected, in that adding more carnauba wax to the LMP matrix slows the dissolution. This is because carnauba wax is more hydrophobic than Compritol 888. […] Adding a pore former to the base LMP-11 formulation may allow for increased dissolution performance by enhancing water permeability while maintaining the desirable physical and handling attributes.
Formulations BREC1690-155, 156, 160, 161, and 162 were tested in a sink dissolution performance test using methods outlined herein at EXAMPLE 3 (Tables 3-A and 3-B). The dissolution rate was increased by the addition of a water soluble component (PVP 17PF, PVP-VA 64 or poloxamer P407). Dissolution was tested on formulations BREC1690-155, 156, 160, 161, and 162. Comparisons of previous Compritol based LMPs (LMP-2 and LMP-5) and BREC1690- 155, 156, and 162 with a dissolution enhancer are shown in FIG. 22.

With caprylic triglyceride [Miglyol 808], the “oil dissolution control, visual” value in data set [1] is listed as “majority of the oil floats on top of the water rather than going into solution”. In data set [2] (30 minutes), the “% LC Release, centrifuged” value was 31.6% ± 2% and the “% LC Release, 10μ filtered” value is reported as 64% (n = 1) % LC. Moreover, in data set [2] (17.5 hours), the “% LC Release, 0.2μ filtered” value was 87% ± 7%; the “% LC Release, centrifuged” value is reported as 27.3% ± 0.6%; the “% LC Release, 10μ filtered” value was 46.5% ± 0.5%.
